Measured values from US20070110734A9, “Methods and compositions using cellular asialodeterminants and glycoconjugates for targeting cells to tissues and organs” (Department of Veterans Affairs, Rehabilitation R&D Service, priority 2002, published 2007).
Entries after “also recorded” stand apart in the source; their conditions may differ.

Columns and labels:
Format in all cases: cell-based, human
HEPG2 (ASGPR+) [1] = experiment: Adherence of NK/LAK activity to HEPG2 monolayers at 4° C; details: monolayer pretreated with 200 μg/ml protein, 2 hours at 4° C, assayed on Raji
Experimental: (§1) Control cells (no IL-2 treatment) or LAK cells (IL-2-treated human peripheral blood lymphocytes cultured 10U IL-2/ml for 3 days) were adhered to a monolayer of HEP G2 cells for 2 hours at 4° C. The monolayer was pretreated either with asialofetuin (ASF, 200 μg/ml) in media or with fetuin (F, control, 200 μg/ml)) in media. After the Control or LAK cells had been incubated on the monolayer, these cells were then decanted, washed, and tested for cytotoxic capacity in a ^51Cr-release assay against the NK-resistant target, Raji.

HEPG2 (ASGPR+) [2] = experiment: Adherence of NK/LAK activity to HEPG2 monolayers at 23° C; details: 23° C, 200 μg/ml
Experimental: (§2) This experiment is the same as above, except that the adherence to monolayers was performed at 23° C. and not 4° C., for 2 hours. Two monolayers were used: HEPG2, an ASGPR+ cell line, and CAKI-2 (human renal cell carcinoma), an ASGPR− cell line. The effector cell populations that were used were: an untreated 3-day old LAK preparation (LAK) and the same population treated with Vibrio cholera neuraminidase (LAK/NS) (30 mU/1×10^7 cells/200 μl). The neuraminidase-treated population was the asialopositive lymphocyte control. All cell populations regardless of treatment were greater than 90% viable at the time of assay. Each type of effector population was incubated with media alone, 200 μg/ml ASF or F, as controls. All effectors were assayed on RAJI (LAK-sensitive target; NK-insensitive target) or K562 (NK/LAK-sensitive target); the E:T ratios and the graphic presentation are the same above.
(§3) Five-day LAK preparations (20 U/ml; 1 Dupont unit=44.5 BRMP units) grown in AIM-V (Gibco) were treated (according to the protocols in B. 1.2.3 & 1.2.4) with 3 OmU Vibric Cholera neuramindase, 0.48 mU 2,3-or 10 mu 2,6-silalyltransferase per 107 cells. Some of the effectors were incubated in media, 10% PBS in RPMJ 1640 at 23° C. for 2 hours. 2×107 effectors from the untreated LALK, neuramithdase-treated LAK, LAK treated with 2,3 or 2,6 were suspended in 15 ml media and placed onto either HEPG2 (ASGPR+) or CAKI-2 (ASGPR−) monolayers at 23° C. for 2 hours. The flasks were rocked every 15 minutes. The nonadherent cells from these monolayers were decanted and assayed against K562 and RAJI, in addition to the unadhered controls. The E:T ratios used were 40, 20, 10, and 5 to 1.

CAKI-2 (ASGPR−) = experiment: Adherence of NK/LAK activity to CAKI-2 monolayers at 23° C; details: 23° C; 200 μg/ml
Experimental: as §2, §3

Caki-2 Targets [3] = experiment: 51Cr-release assay of LAK effectors against CAKI-2 with agent added; details: for % 51Chromium Release from Caki-2 Targets: agent 250 μg per well, 5-day LAK, 4-hour incubation
Description: A working hypothesis is that LAK/NK cells bind to HEPG2 via at least two receptors or recognition structures: 1) the ASGPR, which binds an asialodeterminant on the LAK/NK population and 2) the “LAK” or “NK” recognition structure for a target epitope. The first should be inhibitable by ASF; the second should not be. Binding to CAKI-2 (ASGPR−) should not be inhibited by ASF and is due to a LAK or NK recognition structure binding to the target epitope. This can be further supported by data derived from experiments (see below) in which 250 μg/well of ASF or F were added to the ^51Cr-release assay of LAK effectors against the labeled target CAKI-2.
(% SPECIFIC RELEASE was determined from quadruplicates whose raw counts per minute differed by less than 10 percent; the assay was a standard 4-hour incubation.)

[4] = tested on: RAJI (LAK-sensitive target; NK-insensitive target); experiment: Cytotoxic capacity of LAK effectors in 51Cr-release assay on RAJI
Experimental: as §1, §2, §3

[5] = tested on: K562 (NK/LAK-sensitive target); experiment: Cytotoxic capacity of IL-2 activated NK effectors in 51Cr-release assay on K562; details: 200 μg/ml; 23° C
Experimental: as §2, §3

Caki-2 Targets [6] = experiment: 51Cr-release assay of LAK effectors against CAKI-2 with agent added; details: concentration of 1 mg/ml

Substance: asialofetuin [ASF]
- adherence of LAK activity to HEPG2 monolayer, in words (HEPG2 (ASGPR+) [1]): virtually all LAK activity can be inhibited from adhering
- adherence of LAK activity to HEPG2 monolayer, in words (HEPG2 (ASGPR+) [1]; listed as asialofetuin): not removed; also recorded: does not adhere
- inhibition of adherence to HEPG2 of LAK activity (assayed on RAJI) (HEPG2 (ASGPR+) [2]): could not be inhibited; also recorded: cannot be inhibited
- inhibition of adherence of LAK activity of the neuraminidase-treated population to HEPG2 (HEPG2 (ASGPR+) [2]; assayed on RAJI): only marginally be inhibited
- inhibition of adherence to HEPG2 of IL-2 activated NK (assayed on K562) (HEPG2 (ASGPR+) [2]; with or without neuraminidase treatment): partially inhibited
- inhibition of adherence to CAKI-2 of IL-2 activated NK or LAK activity (CAKI-2 (ASGPR−)): could not be inhibited; also recorded: cannot be blocked
- % 51Chromium Release from Caki-2 Targets (Caki-2 Targets [3]; E:T 5:1): 13%
- % 51Chromium Release from Caki-2 Targets (Caki-2 Targets [3]; E:T 10:1): 24%
- % 51Chromium Release from Caki-2 Targets (Caki-2 Targets [3]; E:T 20:1): 41%
- % 51Chromium Release from Caki-2 Targets (Caki-2 Targets [3]; E:T 40:1): 52%
- blocking of LAK killing of the tumor target CAKI-2, in words (Caki-2 Targets [3]; preincubation of targets and addition to the assay at 250 μg per well): does not block
- activity of LAK or Control preparations incubated with the protein alone versus untreated LAK ([4]; 200 μg/ml for 2 h at 40C, no monolayer): identical activity
- ability of effectors (LAK or LAK/NS) to kill RAJI after preincubation with the protein ([4]; 200 μg/ml, 23° C): does not affect
- ability of effectors (LAK or LAK/NS) to kill K562 after preincubation with the protein [5]: does not affect
- inhibition of the ability of LAK to kill CAKI-2 target, in words (Caki-2 Targets [6]): did not inhibit
